These are literature values, as cited in US7265142B2, “Materials and methods for the treatment of hypertension and angina” (ARYx Therapeutics, priority 2001, dated 2007).

For the data set the following is noted: background statement; patients switched from mibefradil to dihydropyridine CCBs.

In the case of `COCC(=O)O[C@]1(CCN(C)CCCc2nc3ccccc3[nH]2)CCc2cc(F)ccc2[C@@H]1C(C)C` [mibefradil], the half-life result is recorded as “up to 24 hours”.
